Columns and labels:
Test in all cases: relative viability (nuclei count vs DMSO), 5 days (fraction); higher = more cells survive
[1] = compound: O=C(CCCCCCNC(=O)c1cnc(N(c2ccccc2)c2ccccc2)nc1)NO [Ricolinostat] + CCNC(=O)c1noc(-c2cc(C(C)C)c(O)cc2O)c1-c1ccc(CN2CCOCC2)cc1 [Luminespib] (partner 0.01 µM)
How it was run: (§1)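 For relative viability, nuclei counts in treated wells were divided by those in vehicle wells. Lung cancer cell lines had been pin-tool dosed in 1536-well plates the day after seeding and cultured for 5 days, then fixed and stained in one step (final 0.05% Triton X-100, 1% formaldehyde, 1 ug/ml Hoechst) and imaged at 4×. Doses were one drug alone or a fixed anchor-drug dose plus five library-drug doses (not always all listed) in √10 steps, and values are duplicate-plate medians.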

TGX 221 + Luminespib = compound: CC1=CN2C(=O)C=C(N=C2C(=C1)C(C)NC3=CC=CC=C3)N4CCOCC4 [TGX 221] + CCNC(=O)c1noc(-c2cc(C(C)C)c(O)cc2O)c1-c1ccc(CN2CCOCC2)cc1 [Luminespib] (partner 0.01 µM)
How it was run: as §1

[2] = compound: C1=CC=C(C(=C1)C2=CC=C(C=C2)C3=CSC4=C3C(=C(C(=O)N4)C#N)O)O + Nc1nc2[nH]cc(CCc3ccc(C(=O)N[C@@H](CCC(=O)O)C(=O)O)cc3)c2c(=O)[nH]1 [Pemetrexed] (partner 0.2 µM)
How it was run: as §1

TGX 221 + Bortezomib = compound: CC1=CN2C(=O)C=C(N=C2C(=C1)C(C)NC3=CC=CC=C3)N4CCOCC4 [TGX 221] + CC(C)C[C@H](NC(=O)[C@H](Cc1ccccc1)NC(=O)c1cnccn1)B(O)O [Bortezomib] (partner 0.002 µM)
How it was run: as §1

Row | Cell Line | relative viability ([1]; first compound 0.08 µM) | relative viability ([1]; first compound 0.253 µM) | relative viability ([1]; first compound 0.8 µM) | relative viability ([1]; first compound 2.53 µM) | relative viability (TGX 221 + Luminespib; first compound 0.08 µM) | relative viability (TGX 221 + Luminespib; first compound 0.253 µM) | relative viability (TGX 221 + Luminespib; first compound 0.8 µM) | relative viability (TGX 221 + Luminespib; first compound 2.53 µM) | relative viability (TGX 221 + Luminespib; first compound 8 µM) | relative viability ([2]; first compound 0.08 µM) | relative viability ([2]; first compound 0.253 µM) | relative viability ([2]; first compound 0.8 µM) | relative viability ([2]; first compound 2.53 µM) | relative viability ([2]; first compound 8 µM) | relative viability (TGX 221 + Bortezomib; first compound 0.08 µM) | relative viability (TGX 221 + Bortezomib; first compound 0.253 µM) | relative viability (TGX 221 + Bortezomib; first compound 0.8 µM) | relative viability (TGX 221 + Bortezomib; first compound 2.53 µM) | relative viability (TGX 221 + Bortezomib; first compound 8 µM)
1 | H3255 | 0.534 | 0.881 | 0.833 | 0.704 | 0.784 | 0.937 | 0.918 | 0.981 | 0.887 | 0.561 | 0.563 | 0.561 | 0.591 | 0.54 | 0.685 | 0.732 | 0.792 | 0.776 | 0.708
2 | NCI-H2023 | 0.761 | 0.434 | 0.752 | 0.665 | 0.711 | 0.555 | 0.685 | 0.603 | 0.386 | 0.188 | 0.296 | 0.368 | 0.208 | 0.323 | 0.947 | 0.864 | 1.06 | 0.861 | 0.857
3 | LOU-NH91 | 0.322 | 0.371 | 0.347 | 0.313 | 0.332 | 0.358 | 0.323 | 0.317 | 0.31 | 0.386 | 0.337 | 0.399 | 0.384 | 0.406 | 0.492 | 0.52 | 0.514 | 0.381 | 0.51
4 | NCI-H2347 | 0.424 | 0.487 | 0.573 | 0.364 | 0.595 | 0.335 | 0.437 | 0.325 | 0.274 | 0.367 | 0.429 | 0.403 | 0.444 | 0.406 | – | 0.899 | 0.886 | 0.877 | 0.752
5 | CAL-12T | 0.497 | 0.378 | 0.542 | 0.303 | 0.644 | 0.206 | 0.244 | 0.295 | 0.257 | 0.958 | 1.23 | 1.24 | 1.43 | 1.33 | – | 0.952 | 0.918 | – | 1.05
6 | RERF-LC-KJ | 1.31 | 1.07 | 1.16 | 0.809 | 1.13 | 1.13 | 1.26 | 1.21 | 1.02 | 0.468 | 0.521 | 0.485 | 0.441 | 0.552 | 0.908 | 1.06 | 1.27 | 0.961 | 1.01
7 | HCC-44 | 0.98 | 1.04 | 1.02 | 0.911 | – | 1.09 | 1.03 | 1.04 | 0.734 | 0.702 | 0.61 | 0.649 | 0.613 | 0.57 | 0.951 | 0.935 | 0.945 | 0.851 | 0.997
8 | NCI-H650 | 0.763 | 0.758 | 0.788 | 0.657 | 0.759 | 0.774 | 0.783 | 0.721 | 0.753 | 0.944 | 1.05 | 0.972 | 0.979 | 0.862 | 0.697 | 0.748 | 0.721 | 0.639 | 0.791

Source: the supplement of paper PMC10307832
